Among the test systems are K562; HL-60; NCI/ADR-RES; SK-MEL-5; UACC-62; NCI-H522; UO-31; OVCAR-4; EKVX; HCC 2998; MDA-MB-435; U-251; SN12C; SK-MEL-2; BT-549; SF-539; UACC-257; MOLT-4; HCT-15; RPMI-8226.
Holding throughout (assay): inhibition of tumour cell growth, NCI panel, 48 h

Molecules are shown by their SMILES.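 Five concentrations, 48 hours, 96-well plates. GI50 is the concentration that inhibits growth by half.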 Active and inactive are the calls of the source. No stated cut-off is given here; in the data, active = GI50 up to about 1.1 µM and inactive = higher.

For `C=C(CCC(C)C1CCC2C3=C(C(=O)CC21C)C1(C)CCC(=O)[C@@H](C)C1CC3=O)C(C)C(=O)O` (stereo partly drawn), the GI50 in the experiment on K562 is 18.6 µM (inactive); in the experiment with HL-60, 14.7 µM (inactive); in the experiment on NCI/ADR-RES, > 100 µM (inactive); in the experiment with SK-MEL-5, 31 µM (inactive); in the experiment on UACC-62, 49.5 µM (inactive); with NCI-H522, 45.8 µM (inactive). Further, the GI50 was 15.2 µM (inactive) with UO-31; 48.1 µM (inactive) in the experiment on OVCAR-4; 78.7 µM (inactive) in the experiment with EKVX; 98.2 µM (inactive) in the experiment on HCC 2998; 65.6 µM (inactive) with MDA-MB-435; 56.5 µM (inactive) in the experiment on U-251. In addition, the GI50 in the experiment with SN12C is > 100 µM (inactive); in the experiment with SK-MEL-2, > 100 µM (inactive); in the experiment on BT-549 it was 47.3 µM (inactive); with SF-539, > 100 µM (inactive); with UACC-257 it was 46.9 µM (inactive); in the experiment with MOLT-4, 40.2 µM (inactive). The compound further gave a GI50 in the experiment on HCT-15 of 77.8 µM.

For `Cc1nc(N(C(C)C)C(C)C)c(C(C)C)o1`, the GI50 in the experiment with K562, in the experiment on HL-60, in the experiment with NCI/ADR-RES, with SK-MEL-5, in the experiment with UACC-62 and with NCI-H522 was > 100 µM (inactive) each time. Moreover, the GI50 in the experiment on UO-31, with OVCAR-4, with EKVX, in the experiment on HCC 2998, in the experiment on MDA-MB-435 and with U-251 was > 100 µM (inactive) throughout. Moreover, the GI50 with SN12C is > 100 µM (inactive); in the experiment with BT-549 it was > 100 µM (inactive); in the experiment on SF-539, > 100 µM (inactive); in the experiment with UACC-257, > 100 µM (inactive); with MOLT-4, > 100 µM (inactive); in the experiment on HCT-15, more than 100 µM.

`Cc1nc2ccc(Cl)cc2c2c1CCO2`: the GI50 with K562 was > 100 µM (inactive); with HL-60 it was 41.5 µM (inactive); in the experiment with RPMI-8226, > 100 µM (inactive); in the experiment on NCI/ADR-RES, > 100 µM (inactive); in the experiment with SK-MEL-5, 68.5 µM (inactive); in the experiment with UACC-62 it was 71.9 µM (inactive). Further, the GI50 in the experiment on NCI-H522 is > 100 µM (inactive); in the experiment with UO-31, 37.1 µM (inactive); with OVCAR-4, > 100 µM (inactive); with EKVX, 17.1 µM (inactive); with HCC 2998 it was > 100 µM (inactive); with MDA-MB-435, > 100 µM (inactive). Moreover, the GI50 with U-251 is > 100 µM (inactive); with SN12C, > 100 µM (inactive); with BT-549 it was 92.9 µM (inactive); in the experiment with SF-539 it was 46.5 µM (inactive); in the experiment with UACC-257, > 100 µM (inactive); with MOLT-4, 45.2 µM (inactive). In addition, the GI50 with HCT-15 was 90.2 µM.

As for `O=C1c2ccccc2-c2nc(-c3cccnc3)cc3c2c1nc1ccccc13`, the GI50 with K562 was > 100 µM (inactive); in the experiment on HL-60 it was 21.2 µM (inactive); in the experiment with RPMI-8226 it was 45.8 µM (inactive); in the experiment on NCI/ADR-RES it was > 100 µM (inactive); with UACC-62, 32.7 µM (inactive); with NCI-H522 it was > 100 µM (inactive). In addition, the GI50 is > 100 µM (inactive) in the experiment on UO-31; > 100 µM (inactive) in the experiment with OVCAR-4; > 100 µM (inactive) with EKVX; > 100 µM (inactive) in the experiment with HCC 2998; 18.2 µM (inactive) in the experiment with MDA-MB-435; > 100 µM (inactive) in the experiment with U-251. The GI50 was > 100 µM (inactive) with SN12C; > 100 µM (inactive) with SK-MEL-2; > 100 µM (inactive) in the experiment with BT-549; > 100 µM (inactive) in the experiment on SF-539; > 100 µM (inactive) in the experiment with UACC-257; 23.6 µM (inactive) in the experiment with MOLT-4. Besides, in the experiment with HCT-15, the GI50 is more than 100 µM.

Consider `CN(C)c1ccc(C(=NN)c2ccc(N(C)C)cc2)cc1`, for which the GI50 with K562 is 0.229 µM (active); in the experiment with HL-60 it was 0.322 µM (active); with RPMI-8226, 0.859 µM (active); with NCI/ADR-RES it was 0.179 µM (active); with SK-MEL-5 it was 0.447 µM (active); in the experiment on UACC-62 it was 0.506 µM (active). In addition, the GI50 is 0.25 µM (active) in the experiment with NCI-H522; 6.49 µM (inactive) in the experiment with UO-31; 9.62 µM (inactive) with OVCAR-4; 4.74 µM (inactive) with EKVX; 0.551 µM (active) in the experiment with HCC 2998; 0.0416 µM (active) in the experiment on MDA-MB-435. For the same compound, the GI50 is 0.486 µM (active) in the experiment on U-251; 2.56 µM (inactive) in the experiment with SN12C; 0.121 µM (active) in the experiment on SK-MEL-2; 1.77 µM (inactive) in the experiment with BT-549; 0.203 µM (active) in the experiment on UACC-257; 0.361 µM (active) with MOLT-4. In the experiment with HCT-15, this compound showed a GI50 of 0.229 µM.

For the compound `CC(C)(C)OC(=O)n1c(Cl)c(C=O)c2ccccc21`, the GI50 was 38.7 µM (inactive) with K562; 33.8 µM (inactive) in the experiment on HL-60; 10.9 µM (inactive) in the experiment on RPMI-8226; 30.7 µM (inactive) in the experiment on NCI/ADR-RES; 43.5 µM (inactive) in the experiment on SK-MEL-5; 19.3 µM (inactive) with UACC-62. The GI50 is > 100 µM (inactive) in the experiment with NCI-H522; 19.1 µM (inactive) in the experiment on UO-31; 36.6 µM (inactive) in the experiment on OVCAR-4; 28 µM (inactive) in the experiment on EKVX; 43.9 µM (inactive) in the experiment on MDA-MB-435; 35.6 µM (inactive) in the experiment on U-251. Further, the GI50 was 23.7 µM (inactive) in the experiment on SN12C; 30.1 µM (inactive) in the experiment with SK-MEL-2; 21.3 µM (inactive) in the experiment with BT-549; 30.1 µM (inactive) with SF-539; 28.8 µM (inactive) in the experiment with UACC-257; 51.8 µM (inactive) in the experiment on MOLT-4. The compound also gave a GI50 in the experiment with HCT-15 of 27.1 µM.

`Cc1ccc2c(c1)C(=O)/C(=C\c1ccccc1)CCS2(=O)=O`: the GI50 in the experiment on K562 is 2.32 µM (inactive); with HL-60 it was 0.303 µM (active); in the experiment on NCI/ADR-RES it was 7.23 µM (inactive); in the experiment on SK-MEL-5, 11.6 µM (inactive); in the experiment on UACC-62 it was 11.9 µM (inactive); with NCI-H522, 4.36 µM (inactive). Further, the GI50 was 10.8 µM (inactive) in the experiment with UO-31; 12 µM (inactive) in the experiment on OVCAR-4; 22.1 µM (inactive) in the experiment with EKVX; 12.2 µM (inactive) in the experiment on HCC 2998; 10.8 µM (inactive) in the experiment on MDA-MB-435; 4.69 µM (inactive) in the experiment on U-251. Further, the GI50 is 14.2 µM (inactive) with SN12C; 18.6 µM (inactive) with SK-MEL-2; 6.68 µM (inactive) in the experiment on BT-549; 10.3 µM (inactive) in the experiment on SF-539; 12.3 µM (inactive) in the experiment on UACC-257; 4.54 µM (inactive) in the experiment with MOLT-4. In addition, the GI50 in the experiment with HCT-15 was 4.84 µM.

`O=C(NCCCN(CCCCN(CCCNC(=O)C(F)(F)F)CCCc1ccccc1)CCCc1ccccc1)C(F)(F)F`: the GI50 with K562 was 2.87 µM (inactive); with HL-60, 2.93 µM (inactive); in the experiment on RPMI-8226 it was 2.63 µM (inactive); with NCI/ADR-RES, 3.45 µM (inactive); with SK-MEL-5, 1.69 µM (inactive); in the experiment on UACC-62 it was 1.8 µM (inactive). In addition, the GI50 in the experiment on NCI-H522 was 1.78 µM (inactive); with UO-31, 1.26 µM (inactive); in the experiment with OVCAR-4, 5.78 µM (inactive); in the experiment with EKVX it was 1.68 µM (inactive); with HCC 2998, 1.78 µM (inactive); in the experiment on MDA-MB-435, 1.76 µM (inactive). Also, the GI50 was 1.6 µM (inactive) with U-251; 2.08 µM (inactive) in the experiment with SN12C; 2.68 µM (inactive) with BT-549; 1.57 µM (inactive) in the experiment with SF-539; 1.71 µM (inactive) with UACC-257; 1.8 µM (inactive) with MOLT-4. The same compound had a GI50 with HCT-15 of 1.44 µM.

On to `CCCCCCCCCCCCCCCCP(=O)(O)OP(=O)(O)OCC1OC(n2cnc3c(N)ncnc32)C(O)C1O` (stereo not drawn), for which the GI50 in the experiment on K562 is 25.8 µM (inactive); in the experiment with HL-60, 35.4 µM (inactive); in the experiment with NCI/ADR-RES, 31.1 µM (inactive); in the experiment with SK-MEL-5 it was 29 µM (inactive); in the experiment with UACC-62, 24.3 µM (inactive); with NCI-H522, 22.1 µM (inactive). Besides, the GI50 is 15.8 µM (inactive) in the experiment on UO-31; 36.3 µM (inactive) with OVCAR-4; 92 µM (inactive) in the experiment with EKVX; 22.5 µM (inactive) in the experiment on HCC 2998; 30.6 µM (inactive) in the experiment with MDA-MB-435; 20 µM (inactive) with U-251. The GI50 was 20.8 µM (inactive) in the experiment with SN12C; 42.5 µM (inactive) in the experiment with SK-MEL-2; 42.4 µM (inactive) in the experiment on BT-549; 19.1 µM (inactive) with SF-539; 23.7 µM (inactive) with UACC-257; 17.3 µM (inactive) in the experiment on MOLT-4. Besides, the GI50 in the experiment with HCT-15 was 23.8 µM.

As for `COC(=O)C1=C(O)C(C(=O)OC)[C@@]2(O)[C@@H](C(=O)OC)C(c3ccc(OC(=O)/C=C/c4ccccc4)cc3)C[C@@H]1[C@@H]2C(=O)OC` (stereo partly drawn), the GI50 was 5.79 µM (inactive) in the experiment on K562; 4.55 µM (inactive) with HL-60; 8.41 µM (inactive) with NCI/ADR-RES; 10.6 µM (inactive) in the experiment on SK-MEL-5; 4.36 µM (inactive) with UACC-62; 5.3 µM (inactive) in the experiment with NCI-H522. The GI50 was 10.6 µM (inactive) in the experiment with UO-31; 6.18 µM (inactive) with OVCAR-4; 12.3 µM (inactive) with EKVX; 4.89 µM (inactive) in the experiment with HCC 2998; 4.83 µM (inactive) with MDA-MB-435; 6.15 µM (inactive) with U-251. The GI50 was 7.11 µM (inactive) in the experiment on SN12C; 4.32 µM (inactive) with SK-MEL-2; 8.22 µM (inactive) in the experiment with BT-549; 3.43 µM (inactive) with SF-539; 7.23 µM (inactive) in the experiment with UACC-257; 2.61 µM (inactive) in the experiment with MOLT-4. Moreover, the GI50 in the experiment on HCT-15 was 3.89 µM.

Turning to `O=c1ccc2ccc(O)cc2o1` [UMBELLIFERONE], the GI50 in the experiment with HL-60, in the experiment with RPMI-8226, with NCI/ADR-RES, in the experiment on SK-MEL-5, with UACC-62 and in the experiment on NCI-H522 was > 100 µM (inactive) throughout. The GI50 was > 100 µM (inactive) in the experiment on UO-31; > 100 µM (inactive) in the experiment on OVCAR-4; > 100 µM (inactive) in the experiment on EKVX; 88.7 µM (inactive) in the experiment with HCC 2998; > 100 µM (inactive) in the experiment on MDA-MB-435; > 100 µM (inactive) in the experiment on U-251. The GI50 in the experiment with SN12C, in the experiment with SK-MEL-2, with BT-549, with SF-539, in the experiment with UACC-257 and in the experiment on MOLT-4 was > 100 µM (inactive) in each case. This compound also returned a GI50 in the experiment on HCT-15 of more than 100 µM.

The values above are taken from ChEMBL document CHEMBL1201862, “PubChem BioAssay data set” (2004).
